For one molecule, IC50 results are on record in publication PMC4421829, “Design, Synthesis and Inhibitory Activity of Photoswitchable RET Kinase Inhibitors” (Scientific Reports, 2015).

As a reminder, the pIC50 is the negative decadic logarithm of the IC50, by convention in mol/L.

pIC50: −log10 of the molar value.

For this assay, the target named is T1, RET (Homo sapiens, UniProt P07949).
T1 construct: RET tyrosine kinase domain (human recombinant RET expressed in Sf9 insect cells)
T1 sequence (P07949 724-1016 limits assumed): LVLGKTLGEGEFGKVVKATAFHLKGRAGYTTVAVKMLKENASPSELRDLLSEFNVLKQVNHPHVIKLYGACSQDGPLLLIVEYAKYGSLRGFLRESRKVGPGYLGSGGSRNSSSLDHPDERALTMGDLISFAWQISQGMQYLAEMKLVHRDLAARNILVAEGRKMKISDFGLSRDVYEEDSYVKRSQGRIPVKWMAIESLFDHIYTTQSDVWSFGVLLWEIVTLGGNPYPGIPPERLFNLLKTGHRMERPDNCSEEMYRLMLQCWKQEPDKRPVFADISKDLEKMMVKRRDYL
The assay is described as follows: luminescent ATP-to-ADP conversion kinase assay (IGF1Rtide substrate, […] ATP), in the dark. Type of assay: biochemical.

In turn, `CC(C)n1nc(/N=N/c2ccccc2)c2c(N)ncnc21` [compound 4, E-4] showed a pIC50 of 6.82.
